# Tested on: colon inflammation induced by 2,4,6 TNBS
# Test: Colon-inflammatory model induced by 2,4,6 TNBS in rats
# Format: in vivo, Wistar (CD) male rats
# Conditions: PABD 2 g/kg/day p.o., infliximab 3.0 mg/kg/day, SASP 50 mg/kg/day; for Body weight change (body weight relative to 100% before TNBS): 2,4,6 TNBS 10 mg/rat into colon, evaluated third day, TNBS alone 91.8%; for Seriousness of inflammation (0-11 scale) / Extension of mucous membrane lesions / TNF-α level: 2,4,6 TNBS 10 mg/rat, third day; for Seriousness of inflammation (0-11 scale): TNBS alone 7.6; for Extension of mucous membrane lesions: TNBS alone 60.2%; for TNF-α level: control 12.7, TNBS alone 420.4
# Text: Examination of Anti-Inflammatory Effect in Colon-Inflammatory Model Induced by TNBS in the Case of Rats.
# The 2,4,6 Trinitrobenzene-sulphonic-acid (2,4,6 TNBS) induction method represents well the pathological changes typical of patients suffering e.g. from Crohn's disease, so this model is well known and accepted in IBD-studies. The method described in Morris G. P. et al. “Hapten-induced model of chronic inflammation and ulceration in the rat colon” Gastroenterology 1989., 96(3); 795-803 was followed.
# Examinations were made in Wistar (CD) male rats. Nr: 10-10/groups.
# PABD powder was produced as described in Example 2; DH % of it's protein fraction was 20%.
# 2,4,6 TNBS=2,4,6 Trinitrobenzene-sulphonic-acid in solution.
# During the method 2,4,6 TNBS (10 mg/rat) was introduced after 12 hours starving in aether-anaesthesia into the colon. Inflammation reach the maximum on the third day. The animals were sacrificed by cervalis dislocation and the results were evaluated.
Compound,Body weight change (body weight relative to 100% before TNBS) [%],Seriousness of inflammation (0-11 scale),Extension of mucous membrane lesions [%],TNF-α level [pg/mg protein]
"O=C(O)c1cc(/N=N/c2ccc(S(=O)(=O)Nc3ccccn3)cc2)ccc1O [SASP, Sulfasalazine]",100.8,5.8,39.7,236.1
Infliximab: biologically active agent used in the treatment of IBD; comparator treatment,100.0,5.4,36.4,212.0
